Assays:
[1] = molecular target: T1, plasma kallikrein (PKa) (Homo sapiens, UniProt P03952); experiment: Inhibitory activity against plasma kallikrein in vitro (fluorescence intensity enzyme assay, Pro-Phe-Arg-AMC substrate); assay type: biochemical; conditions: Pro-Phe-Arg-AMC substrate
T1 construct: purchased R & D 2497-SE
Summary of the method: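 Fluorescence intensity enzyme assay with 10 nM enzyme and 60 µM Pro-Phe-Arg-AMC (final concentrations). Compounds in DMSO, tested in duplicate over a dose series. IC50 from nonlinear regression curve fitting.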

[2] = molecular target: T1, plasma kallikrein (PKa); experiment: PKa inhibition in kaolin-activated human platelet-poor plasma (PPP); assay type: biochemical; conditions: Pro-Phe-Arg-AMC substrate, fluorescence signal
Method: Test Example 2. Evaluation of the compounds of the present invention in terms of PKa Inhibition in Kaolin-Activated Human PPP: Platelet-poor plasma (PPP) obtained from human whole blood, anticoagulated with Na - Citrate, was incubated with various concentrations of the test compounds and 25, 75, 250, or 750 µg/mL kaolin in assay buffer for 20 minutes at 37°C, so that a concentration response of the test compounds was obtained with respect to various kaolin concentrations. The positive drug was diluted in accordance with the reference concentration and diluted 3-fold with the diluent as the first point.
50 nL of compounds were then transferred to a 384 assay plate containing 2 replicates per well. The 384 assay plate was centrifuged at 1000 rpm/min. 2.5 µL of human plasma working solution was added to each assay well. The 384 assay plate was centrifuged at 1000 RPM. 2.5 µL of kaolin working solution was added to each assay well. The 384 assay plate was centrifuged at 1000 RPM and incubated at 25°C for 20 minutes. 5 µL of Pro-Phe-Arg-AMC working solution was added to each assay well. The 384 assay plate was centrifuged at 1000 RPM and incubated at 25°C for 60 minutes. BMG reads the fluorescence signal.
The percent inhibition of the compound was calculated according to the following formula: [formula]

[3] = molecular target: KLK1 (Homo sapiens, UniProt P06870); experiment: Inhibitory activity against KLK1 in vitro (biochemical assay)
From the text: Test Example 1. Test of the inhibitory activities of the compounds of the present invention against plasma kallikrein (PKa), KLK1 and FXIa in vitro. […]

[4] = molecular target: FXIa (Homo sapiens, UniProt P03951); experiment: Inhibitory activity against FXIa in vitro (biochemical assay)
Method: Test Example 1. Test of the inhibitory activities of the compounds of the present invention against plasma kallikrein (PKa), KLK1 and FXIa in vitro.
PKK (R & D, Cat # 2497-SE) and Pro-Phe-Arg-AMC (Nanjing Peptide, Cat # NJP23946) solutions were prepared in reaction buffer (50 mM Tris-HCl, pH 7.5, 250 mM NaCl). The final concentrations of enzyme protein and Pro-Phe-Arg-AMC in the reaction mixture were 10 nM and 60 µM, respectively. The starting concentration of the positive reference substance Avoralstat was 100 nM, 3-fold dilution, 10 + 0 dose. 0.05 µL of compound in 100% DMSO was delivered to a 384-well plate by an acoustic liquid delivery technique (Echo665; nanoliter range). Compound duplex test. 5 µL of 2 × enzyme solution was transferred to a 384 reaction plate and centrifuged at 1000 rpm for 1 minute, incubated at 25°C for 15 minutes; 5 µL of 2 × Pro-Phe-Arg-AMC solution was transferred to a 384 reaction plate, centrifuged at 1000 rpm for 1 minute, incubated at 25°C for 3 hours. […] IC50 values and nonlinear regression curve fitting were obtained using GraphPad Prism software.

[5] = plasma kallikrein enzyme assay, read-out: PKa IC50

Sequence of FXIa (P03951 388-625 limits assumed): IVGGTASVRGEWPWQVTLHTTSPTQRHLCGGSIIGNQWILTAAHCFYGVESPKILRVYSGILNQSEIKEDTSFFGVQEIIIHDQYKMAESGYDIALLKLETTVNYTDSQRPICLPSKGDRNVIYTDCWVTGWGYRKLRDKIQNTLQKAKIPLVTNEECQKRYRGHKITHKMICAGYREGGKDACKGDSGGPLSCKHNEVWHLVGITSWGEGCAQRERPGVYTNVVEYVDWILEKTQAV
Sequence of FXIa (P03951 19-387 partner limits assumed): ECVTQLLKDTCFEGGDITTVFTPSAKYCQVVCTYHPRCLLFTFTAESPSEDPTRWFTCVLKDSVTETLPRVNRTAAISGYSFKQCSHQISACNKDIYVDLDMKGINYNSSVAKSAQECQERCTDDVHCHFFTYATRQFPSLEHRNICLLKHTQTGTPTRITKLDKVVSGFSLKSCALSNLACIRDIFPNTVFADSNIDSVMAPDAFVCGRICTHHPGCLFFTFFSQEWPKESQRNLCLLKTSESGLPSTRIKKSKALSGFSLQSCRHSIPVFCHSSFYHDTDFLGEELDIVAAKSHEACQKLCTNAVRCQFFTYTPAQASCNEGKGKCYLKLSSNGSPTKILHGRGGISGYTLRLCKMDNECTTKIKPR
Sequence of KLK1 (P06870 25-262, species assumed): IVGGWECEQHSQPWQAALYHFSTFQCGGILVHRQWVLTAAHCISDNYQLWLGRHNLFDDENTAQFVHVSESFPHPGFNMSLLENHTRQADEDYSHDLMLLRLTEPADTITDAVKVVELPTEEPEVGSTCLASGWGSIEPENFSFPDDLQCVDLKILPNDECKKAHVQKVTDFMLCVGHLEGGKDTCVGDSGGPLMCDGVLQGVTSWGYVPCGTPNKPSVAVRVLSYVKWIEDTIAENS
T1 sequence (P03952 391-638 limits assumed): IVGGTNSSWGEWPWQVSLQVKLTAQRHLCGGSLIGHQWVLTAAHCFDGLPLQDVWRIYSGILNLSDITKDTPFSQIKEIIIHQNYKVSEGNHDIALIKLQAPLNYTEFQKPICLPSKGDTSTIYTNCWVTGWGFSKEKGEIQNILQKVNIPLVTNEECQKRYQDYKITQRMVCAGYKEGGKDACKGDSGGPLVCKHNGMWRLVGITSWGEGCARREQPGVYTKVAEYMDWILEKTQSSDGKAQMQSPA
T1 sequence (P03952 20-390 partner limits assumed): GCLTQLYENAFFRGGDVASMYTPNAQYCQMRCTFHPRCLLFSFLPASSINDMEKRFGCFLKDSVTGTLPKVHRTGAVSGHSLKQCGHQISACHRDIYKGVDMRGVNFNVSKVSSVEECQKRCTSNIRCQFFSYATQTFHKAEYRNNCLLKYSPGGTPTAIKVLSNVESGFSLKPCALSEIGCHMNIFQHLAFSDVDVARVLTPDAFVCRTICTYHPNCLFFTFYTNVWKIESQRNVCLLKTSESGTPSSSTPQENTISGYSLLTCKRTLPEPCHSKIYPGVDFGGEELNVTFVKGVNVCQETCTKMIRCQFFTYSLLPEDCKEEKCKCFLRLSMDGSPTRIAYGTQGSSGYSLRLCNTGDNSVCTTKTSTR

Row | SMILES | IC50 [1, 5] | IC50 [2] | IC50 ([3]; values given in µM) | IC50 ([4]; values given in µM) | IC50 ([3]; values in nM) | IC50 ([4]; values in nM) | IC50 ([1]; PKa IC50, plasma kallikrein enzyme assay)
1 | N#Cc1cc(N2CC3C(C2)C3(F)F)ccc1Cn1cc(C(=O)NCc2ccc(C(=N)N)cc2)cn1 (centres unmarked) [Compound 40] | < 0.05 nM | 2.15 nM |  |  |  |  | 
2 | COc1ccnc(CNC(=O)c2cn(Cc3ccc(Cn4ccccc4=O)cc3)nc2CN2CCN(C)CC2)c1F [Compound 213] | 35 nM |  | > 10 µM | > 10 µM |  |  | 
3 | Nc1ccnc(CNC(=O)c2cn(Cc3ccc(Cn4ccccc4=O)cc3)nc2C2COC2)c1F [Compound 274] | 0.6 nM |  | > 10 µM | > 10 µM |  |  | 
4 | COc1ccc(F)c(CNC(=O)c2cn(Cc3ccc(Cn4ccccc4=O)cc3)nc2CO[C@H]2CCN(C)C2)c1F [Compound 225] | 2.86 nM |  | > 10 µM | > 10 µM |  |  | 
5 | Cc1cc(N)nc(C)c1CNC(=O)c1ncn(Cc2ccc(Cn3cccc(C)c3=O)cc2)n1 [Compound 56] | 0.16 nM |  | > 10 µM | > 10 µM |  |  | 
6 | N=C(N)c1ccc(CNC(=O)c2cnn(Cc3cnc(N4CC5C(C4)C5(F)F)c(F)c3)c2)cc1 (centres unmarked) [Compound 374] | 0.06 nM |  | > 10 µM | > 10 µM |  |  | 
7 | COCc1cn(Cc2ccc(CN3CCCCC3=O)cc2)nc1C(=O)NCc1c(C)cc(N)nc1C [Compound 74] | 5.7 nM |  | > 10 µM | > 10 µM |  |  | 
8 | COCc1nn(Cc2ccc(Cn3ccccc3=O)cc2)cc1C(=O)NCc1ncc2c(c1F)N(C)CC2 [Compound 391] | 1.4 nM |  | > 10 µM | > 10 µM |  |  | 
9 | COCc1nn(Cc2ccc(C3CCCCC3)c(C(F)(F)F)c2)cc1C(=O)NCc1ccc(C(=N)N)cc1 [Compound 153] | 0.18 nM |  | > 10 µM | > 10 µM |  |  | 
10 | N=C(N)c1ccc(CNC(=O)c2cnn(Cc3ccc(CC4CC4)cc3)c2)cc1F [Compound 321] | 2.71 nM |  | > 10 µM | > 10 µM |  |  | 
11 | COCc1nn(Cc2ccc(Cn3ccccc3=O)cc2)cc1C(=O)NCc1ncc2c(c1F)OCC2 [Compound 396] | 2.1 nM |  | > 10 µM | > 10 µM |  |  | 
12 | CN1CCc2cnc(CNC(=O)c3cn(Cc4ccc(Cn5ccccc5=O)cc4)nc3C(F)(F)F)c(F)c21 [Compound 389] | 1.45 nM |  | > 10 µM | > 10 µM |  |  | 
13 | N=C(N)c1ccc(CNC(=O)c2cnn(Cc3ccc(CC4CC4)c(F)c3)c2)cc1 [Compound 262] | 2.67 nM |  | > 10 µM | > 10 µM |  |  | 
14 | N#Cc1cc(N2CC3C(C2)C3(F)F)ccc1Cn1cc(C(=O)NCc2ccc(C(=N)N)cc2)cn1 (centres unmarked) [Compound 8] | 1.22 nM |  |  |  | < 0.5 µM | < 0.5 µM | 
15 | COCc1nn(Cc2ccc3ncc(Cl)cc3c2)cc1C(=O)NCc1c(C)cc(N)nc1C [Compound 5, N-((6-amino-2,4-dimethylpyridin-3-yl)methyl)-1-((3-chloroquinolin-6-yl)methyl)-3-(methoxymethyl)-1H-pyrazole-4-carboxamide] | 0.6 nM |  |  |  | < 0.5 µM | < 0.5 µM | 
16 | Cc1cc(N)nc(C)c1CNC(=O)c1ncn(Cc2cc(Cl)c(Cn3ccccc3=O)cc2Cl)n1 [Compound 80] | 0.096 nM |  | > 10 µM | > 10 µM |  |  | 
17 | Cc1cc2nccn2c(C)c1CNC(=O)c1cn(Cc2ccc(N3CC4C(C3)C4(F)F)cc2C#N)nc1C(F)(F)F (centres unmarked) [Compound 204] | 1.23 nM |  | > 10 µM | > 10 µM |  |  | 
18 | Cc1cc(N)nc(C)c1CNC(=O)c1ncn(Cc2c(F)c(F)c(Cn3ccccc3=O)c(F)c2F)n1 [Compound 22] | 0.63 nM |  | > 10 µM | > 10 µM |  |  | 
19 | N=C(N)c1ccc(CNC(=O)c2cnn(Cc3ccc(CC4CC4)nc3)c2)cc1 [Compound 373] | 0.56 nM |  | > 10 µM | > 10 µM |  |  | 
20 | COCc1nn(Cc2c(F)c(F)c(Cn3ccccc3=O)c(F)c2F)cc1C(=O)NCc1c(C)cc(N)nc1C [Compound 28] | 2.33 nM |  |  | > 10 µM | > 0.5 µM |  | 

Row | SMILES | IC50 [1, 5] | IC50 [2] | IC50 ([3]; values given in µM) | IC50 ([4]; values given in µM) | IC50 ([3]; values in nM) | IC50 ([4]; values in nM) | IC50 ([1]; PKa IC50, plasma kallikrein enzyme assay)
21 | COCc1cn(Cc2ccc(Cn3ccccc3=O)cc2)nc1C(=O)NCc1c(C)cc(N)nc1C [Compound 60] | 0.65 nM |  | > 10 µM | > 10 µM |  |  | 
22 | O=C(NCc1ncc2c(c1F)NCC2)c1cnn(Cc2ccc(Cn3ccccc3=O)cc2)c1 [Compound 384] | 2.17 nM |  | > 10 µM | > 10 µM |  |  | 
23 | Cc1cc(N)nc(C)c1CNC(=O)c1ccn(Cc2ccc(Cn3ccccc3=O)cc2)c1 [Compound 61] | 0.12 nM |  | > 10 µM | > 10 µM |  |  | 
24 | CCc1c(N)nc(C)c(CNC(=O)c2cnn(Cc3ccc(Cn4ccccc4=O)cc3)c2)c1C [Compound 253] | 0.18 nM |  | > 10 µM | > 10 µM |  |  | 
25 | N=C(N)c1ccc(CNC(=O)c2cnn(Cc3cc(Cl)c(C(=O)C4CC4)c(Cl)c3)c2)cc1 [Compound 393] | 1.05 nM |  | > 10 µM | > 10 µM |  |  | 
26 | COCc1nn(Cc2ccc(Cn3ccccc3=O)cc2)cc1C(=O)NCc1ccc(C(=N)N)nc1 [Compound 361] | 0.09 nM |  | > 10 µM | > 10 µM |  |  | 
27 | COCc1nn(Cc2ccc(Cn3ccccc3=O)cc2)cc1C(=O)NCc1ccc2c(N)nccc2c1 [Compound 71] | 0.19 nM |  | > 10 µM | > 10 µM |  |  | 
28 | N=C(N)c1ccc(CNC(=O)c2cnn(Cc3c(F)cc(N4CC5C(C4)C5(F)F)cc3F)c2)cc1 (centres unmarked) [Compound 368] | 0.19 nM |  | > 10 µM | > 10 µM |  |  | 
29 | COc1cc(Cn2cc(C(=O)NCc3ccc(C(=N)N)cc3)cn2)cc(OC)c1CC1CC1 [Compound 375] | 0.85 nM |  | > 10 µM | > 10 µM |  |  | 
30 | COc1ccnc(CNC(=O)c2cn(Cc3ccc(Cn4ccccc4=O)cc3)nc2N2CC(C)(O)C2)c1F [Compound 296] |  |  | > 10 µM | > 10 µM |  |  | 2.22 nM
31 | CN(C)c1ccnc(CNC(=O)c2cn(Cc3ccc(Cn4ccccc4=O)cc3)nc2C2CC2(F)F)c1F (centres unmarked) [Compound 310] | 1.6 nM |  | > 10 µM | > 10 µM |  |  | 
32 | Cc1cc(N)nc(C)c1CNC(=O)c1cnn(Cc2ccc3ncc(Cl)cc3c2)c1 [Compound 10, N-((6-amino-2,4-dimethylpyridin-3-yl)methyl)-1-((3-chloroquinolin-6-yl)methyl)-1H-pyrazole-4-carboxamide] | 0.132 nM |  | > 10 µM | > 10 µM |  |  | 
33 | Cn1cnc2cnc(CNC(=O)c3cnn(Cc4ccc(Cn5ccccc5=O)cc4)c3)c(F)c21 [Compound 377] | 1.42 nM |  | > 10 µM | > 10 µM |  |  | 
34 | N=C(N)c1ccc(CNC(=O)c2cnn(Cc3ccc(OC4CCCC4)c(C(F)(F)F)c3)c2)cc1 [Compound 386] | 1.68 nM |  | > 10 µM | > 10 µM |  |  | 
35 | Cc1cc(N)nc(C)c1CNC(=O)c1cnn(Cc2ccc(N3CC4C(C3)C4(F)F)cc2C#N)c1 (centres unmarked) [Compound 7, N-((6-amino-2,4-dimethylpyridin-3-yl)methyl)-1-(2-cyano-4-(6,6-difluoro-3-azabicyclo[3.1.0]hexan-3-yl)benzyl)-1H-pyrazole-4-carboxamide] | < 0.051 nM |  | > 10 µM | > 10 µM |  |  | 
36 | COc1ccc(Cl)c(CNC(=O)c2cn(Cc3ccc(Cn4ccccc4=O)cc3)nc2COCC2(F)COC2)c1F [Compound 289] | 2.31 nM |  | > 10 µM | > 10 µM |  |  | 
37 | COCc1nn(Cc2ccc(Cn3ccccc3=O)cc2)cc1C(=O)NCc1c(C)cc2nccn2c1C [Compound 143] | 0.65 nM |  | > 10 µM | > 10 µM |  |  | 
38 | N=C(N)c1ccc(CNC(=O)c2cnn(Cc3ccc(CC4CC4)cc3)c2)cc1 [Compound 105] | 0.26 nM |  | > 10 µM | > 10 µM |  |  | 
39 | Cc1cc(Cn2cc(C(=O)NCc3ccc(C(=N)N)cc3)cn2)cc(C)c1CC1CC1 [Compound 381] | 0.03 nM |  | > 10 µM | > 10 µM |  |  | 
40 | Cc1cc(N)nc(C)c1CNC(=O)c1csc(Cc2ccc(Cn3ccccc3=O)cc2)n1 [Compound 68] | 0.32 nM |  | > 10 µM | > 10 µM |  |  | 

Source: patent EP4737450A1 (Longwood Pharmaceuticals (Hangzhou) Co., Ltd, priority 2023, dated 2025)
